Data published in US20260209242A1, “CAMPTOTHECIN DERIVATIVE, PHARMACEUTICAL COMPOSITION, AND PREPARATION METHOD AND USE THEREFOR” (priority 2022, published 2026).
Converted amounts (≈) assume the structure as drawn. Like-named read-outs stand apart in the source and are kept apart here.

Columns and labels:
[1] = Kinetic solubility test in PBS 7.4; format: physicochemical; conditions: for solubility at 2 h: 25 °C, pH 7.4, aqueous buffer, kinetic from dmso stock
Protocol: 10 mM stock solutions of the test substances 6-2, 11-2, 17-2, Dxd, and the control drugs progesterone and diclofenac were prepared using DMSO respectively.
15 μL of 10 mM stock solution of each of the test substances was added to a corresponding position of a corresponding 96-well plate in a specified sequence. 485 μL of the PBS 7.4 was added to a corresponding vial on a sample plate. The experiment was run in duplicate. Each vial was additionally provided with a stirring rod and was plugged. Then, the sample plate was transferred in a thermostatic mixer, and oscillated at a revolving speed of 1,100 rpm at 25° C. for 2 h. 2 h later, the plug was removed, the stirring rod was attracted away with a large magnet, and then the sample was transferred from the sample plate to the filter plate. Negative pressure was generated using a vacuum pump to filter the sample. 5 μL of filtrate and 5 μL of blank DMSO were transferred to another sample plate, and then 490 μL of internal standard water (acetonitrile:water=1:1) containing the internal standard was added. Depending on peak shapes, a certain proportion of internal standard water may be used to dilute the sample diluent to obtain better peak shapes.
6 μL was transferred from the 10 mM DMSO stock solution plate to a blank plate, and was prepared into a 300 μM standard substance solution with addition of 194 μL of DMSO. 5 μL was transferred from the 300 μM standard substance solution plate to still another blank plate, and then 5 μL of blank buffer and 490 μL of the internal standard water containing the internal standard (acetonitrile:water=1:1) were added until a final concentration of the standard substance solution was 3 μM.
An injection plate was transferred on an injection tray of an autosampler to evaluate the sample by LC/MS analysis.
All calculations were performed using Microsoft Excel.
The sample filtrate was analyzed and quantified by qualitative and quantitative LC/MS of standard substance peaks at known concentrations. The calculation formula for the solubility values of the reference drugs and the test substances are as follows:
[Sample] is the compound concentration, DFSample refers to the sample dilution factor, [STD] is the standard substance concentration of the compound, AREAStd is the standard substance peak area of the compound, and AREASample is the peak area of the compound sample.

[2] = Pharmacokinetic test in SD rats; conditions: male, Sprague-Dawley (SD), rat, in vivo, iv, 2 mg/kg
Protocol: After a single intravenous injection (dose: 2 mpk) of the compounds 6-2, 11-2, 17-2, and Dxd into male SD rats (blood collection time points: 0.083 h, 0.25 h, 0.5 h, 1 h, 2 h, 4 h, 8 h, and 24 h after IV administration, totaling 8 blood collection time points), average pharmacokinetic parameters in the plasma are as shown in Table 5: […]

CYP3A4 = target: T1, CYP3A4 (Homo sapiens, UniProt P08684); test: Inhibition on human hepatomicrosomes CYP3A4; format: in vitro ADME
T1 construct: from tissue; host or cells: human liver microsomes
T1 sequence (P08684 whole entry): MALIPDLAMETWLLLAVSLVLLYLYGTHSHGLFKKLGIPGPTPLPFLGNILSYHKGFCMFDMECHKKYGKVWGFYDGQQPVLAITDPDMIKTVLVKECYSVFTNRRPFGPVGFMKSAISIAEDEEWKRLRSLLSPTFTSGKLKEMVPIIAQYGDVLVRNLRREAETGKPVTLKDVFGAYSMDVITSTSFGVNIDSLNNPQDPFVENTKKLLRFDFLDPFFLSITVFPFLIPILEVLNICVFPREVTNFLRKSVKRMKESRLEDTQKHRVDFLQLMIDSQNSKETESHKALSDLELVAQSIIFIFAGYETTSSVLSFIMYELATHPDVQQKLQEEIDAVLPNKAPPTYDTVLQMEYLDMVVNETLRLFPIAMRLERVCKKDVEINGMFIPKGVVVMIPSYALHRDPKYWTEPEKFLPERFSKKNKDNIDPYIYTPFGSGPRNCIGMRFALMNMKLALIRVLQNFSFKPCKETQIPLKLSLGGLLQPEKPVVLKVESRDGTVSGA

[3] = Stability of compounds in human plasma; format: in vitro ADME; conditions: for Residual percentage (%) 1 h / Residual percentage (%) 2 h / Residual percentage (%) 6 h / Residual percentage (%) 24 h: 5 μmol/L
Protocol: • (1) 199 μL of human plasma was added to the culture plate of each cell. The culture plate was preheated to 37° C., and kept at this temperature for 15 min. • (2) After preincubation, 1 μL of 1 mmol/L each test compound and 1 μL of 1 mmol/L control compound were added to 199 μL of plasma, so that a final concentration of each test compound was 5 μmol/L and that of the control compound was 5 gmol/L. The final concentration of the organic solvent was 0.5%. The experiment would be duplicated twice. • (3) Reaction samples were incubated at 37° C. • (4) The reaction was stopped by adding 600 μL of cold methanol containing the internal standard at 0, 1, 2, 6, and 24 h. Each sample was vortex mixed for 10 min, and then centrifuged at 3,220 g for 30 min to precipitate the protein. […] Based on the signal response and peak shapes of liquid chromatography-mass spectrometry (LC-MS), the supernatant would be diluted with ultrapure water.
All calculations were performed using Microsoft Excel. The peak area ratio was determined from the chromatogram of extracted ions. The percentage of compounds remaining at each time point was calculated as per the following formula: […]

[4] = Stability of compounds in human plasma; format: in vitro ADME; conditions: 5 μmol/L
CYP1A2 = target: T2, CYP1A2 (Homo sapiens, UniProt P05177); test: Inhibition on human hepatomicrosomes CYP1A2
T2 sequence (P05177 1-516): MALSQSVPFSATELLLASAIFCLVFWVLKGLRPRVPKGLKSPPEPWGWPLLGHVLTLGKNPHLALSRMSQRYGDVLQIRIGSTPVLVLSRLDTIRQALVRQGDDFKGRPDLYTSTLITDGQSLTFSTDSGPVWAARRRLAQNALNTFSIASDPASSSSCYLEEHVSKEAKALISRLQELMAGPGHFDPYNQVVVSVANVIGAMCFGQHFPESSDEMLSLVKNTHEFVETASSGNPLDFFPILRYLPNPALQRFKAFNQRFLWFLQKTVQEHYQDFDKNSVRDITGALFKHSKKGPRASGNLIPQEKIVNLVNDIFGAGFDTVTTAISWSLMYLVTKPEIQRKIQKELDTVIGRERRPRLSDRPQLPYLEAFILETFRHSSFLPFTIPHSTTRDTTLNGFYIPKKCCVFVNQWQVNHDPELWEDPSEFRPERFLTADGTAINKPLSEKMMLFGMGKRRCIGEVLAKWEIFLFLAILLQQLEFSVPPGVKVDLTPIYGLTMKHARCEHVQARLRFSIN

CYP2D6 = CYP2D6 (Homo sapiens, UniProt P10635); test: Inhibition on human hepatomicrosomes CYP2D6
Chain of CYP2D6 (P10635 whole entry): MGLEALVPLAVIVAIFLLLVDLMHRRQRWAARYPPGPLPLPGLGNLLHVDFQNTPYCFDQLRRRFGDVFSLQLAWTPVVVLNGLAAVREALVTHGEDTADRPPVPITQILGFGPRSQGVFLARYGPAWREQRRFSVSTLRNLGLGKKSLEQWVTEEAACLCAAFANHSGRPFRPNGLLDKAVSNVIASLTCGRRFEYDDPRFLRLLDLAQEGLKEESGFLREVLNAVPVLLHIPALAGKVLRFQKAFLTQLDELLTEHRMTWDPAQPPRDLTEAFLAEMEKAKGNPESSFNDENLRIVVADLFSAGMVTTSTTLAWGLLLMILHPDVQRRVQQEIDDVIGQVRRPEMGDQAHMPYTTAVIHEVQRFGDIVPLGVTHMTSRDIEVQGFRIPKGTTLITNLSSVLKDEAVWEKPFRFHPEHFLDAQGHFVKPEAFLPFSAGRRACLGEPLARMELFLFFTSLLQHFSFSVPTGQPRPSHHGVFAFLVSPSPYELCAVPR

[5] = read-out: 3A4M (IC50 μM), human hepatomicrosomes, substrate midazolam

SMILES: CC[C@@]1(O)C(=O)OCc2c1cc1n(c2=O)Cc2c-1nc1cc(F)c(C)c3c1c2C(NC(=O)C[C@@H](C)O)CCC3 (single isomer, unassigned) [Compound 6-2]
- solubility in the PBS 7.4 compared with Dxd (in words) [1]: significantly better solubility in the PBS 7.4 than Dxd
- solubility at 2 h [1]: 170 µM (≈ 91 µg/mL)
- AUC(0-inf) [2]: 318 ng·h/mL
- AUC(0-t) [2]: 314 ng·h/mL
- C0 [2]: 677 ng/mL
- Vd [2]: 2.93 L/kg
- clearance [2]: 108 mL/min/kg
- half-life [2]: 0.39 h
- IC50 (CYP3A4): > 30 µM
- IC50 (CYP3A4; [5]): > 30 µM
- Residual percentage (%) 1 h [3]: 96.62%
- Residual percentage (%) 2 h [3]: 86.16%
- Residual percentage (%) 6 h [3]: 88.99%
- Residual percentage (%) 24 h [3]: 87.01%
- stability in human plasma (in words) [3]: good stability in human plasma
- Residual percentage (%) 4 h [4]: 93.65%
- IC50 (CYP1A2): > 30 µM
- IC50 (CYP2D6): > 30 µM

SMILES: CC[C@@]1(O)C(=O)OCc2c1cc1n(c2=O)Cc2c-1nc1cc(F)c(C3CC3)c3c1c2C(NC(=O)C[C@@H](C)O)CC3 (single isomer, unassigned) [Compound 17-2]
- solubility at 2 h [1]: 1.7 µM (≈ 0.931 µg/mL)
- AUC(0-inf) [2]: 2730 ng·h/mL
- AUC(0-t) [2]: 2250 ng·h/mL
- C0 [2]: 2690 ng/mL
- Vd [2]: 1.4 L/kg
- clearance [2]: 12.3 mL/min/kg
- half-life [2]: 1.64 h
- IC50 (CYP3A4): > 30 µM
- IC50 (CYP3A4; [5]): > 30 µM
- Residual percentage (%) 1 h [3]: 90.07%
- Residual percentage (%) 2 h [3]: 89.34%
- Residual percentage (%) 6 h [3]: 97.06%
- Residual percentage (%) 24 h [3]: 102.21%
- stability in human plasma (in words) [3]: good stability in human plasma
- Residual percentage (%) 4 h [4]: 93.75%
- IC50 (CYP1A2): > 30 µM
- IC50 (CYP2D6): > 30 µM
